# Reference: patent publication US11459586B2, “Methods for increasing efficiency of nuclease-mediated gene editing in stem cells” (President and Fellows of Harvard College, priority 2016, dated 2022)
# Test system: human iPSC
# Assay: gene targeting (mThy1, mCD147) in hiPSC transiently transfected with Cas9-IRES-anti-apoptotic gene plasmids
# Type: cell-based
# Procedure: FIGS. 4A-D. Bcl-2 overexpression increases HR-mediated gene targeting in human iPSC when transiently transfected with the Cas9 nuclease. FIG. 4A. Mouse Thy1 gene targeting scheme. FIG. 4B. Plasmids were constructed to constitutively express Cas9 together with an anti-apoptotic gene (separated by an IRES) under the constitutively active EF1α promoter. Plain human iPSC were nucleofected with 0.5 μg of one of these Cas9 plasmids together with 2 μg of the mThy1 targeting vector and 1.5 μg of plasmids expressing the Thy1 Left, Right, both, or no sgRNAs (pUC19). Five days later, cells were analyzed by flow cytometry. FIG. 4C. Flow cytometry staining for mThy1 and hThy1 for the Cas9 only sample gated on live single cells; the percent of cells in each quadrant is indicated. […] FIG. 4D. Compiled gene editing frequencies. The percent of mThy1^+hThy1^− (bottom portion of each bar in the left, center, and right grafts), mThy1^+hThy1^+ (top portion of bars in the left and center graphs), and mThy1^−hThy1^− (top portion of bars in the right graph) cells is graphed for each indicated sample. Lines mark the percentages for the Cas9 only sample. Results are representative of two independent experiments.
# FIGS. 8A-F. Wild type Bcl-2 improves gene targeting at various genomic loci across multiple hiPSC lines. FIG. 8A. Plasmids were constructed to constitutively express the Cas9 nuclease with a form of Bcl-2 (separated by an IRES), and a sgRNA. Three human iPSC lines were nucleofected with 2 μg of mThy1 or mCD147 targeting vector and 2 μg of “Cas9 sgRNA” or “Cas9 Bcl-2 sgRNA” expression plasmid. 5-9 days later, cells were analyzed by flow cytometry. FIG. 8B. Mouse Thy1 gene targeting scheme. FIG. 8C. Single amino acid mutations were generated for the Bcl-2 BH1 (G145A) or BH4 (Y28A) domains. Compiled gene editing frequencies for cells transfected with the Left, Right, or Both Thy1 sgRNAs. The percent of mThy1^+hThy1^− (bottom portion of each set of bars in each graph), mThy1^+hThy1^+ (top portion of left and center sets of bars in each graph and center portion of right set of bars in each graph), and mThy1^−hThy1^− (top portion of right set of bars in each graph) cells among the various samples is indicated. FIG. 8D. Mouse CD147 gene targeting scheme. FIG. 8E. Flow cytometry staining for mCD147 and hCD147 for retrovirally-derived PGP1 hiPSC transfected with “Cas9 sgRNA” or “Cas9 Bcl-2 sgRNA”. Samples are gated on live single cells; the percent of cells in each quadrant is indicated. FIG. 8F. Compiled gene editing frequencies for cells transfected with the Left, Right, or both CD147 sgRNAs. The percent of mCD147^+hCD147^− (bottom portion of each set of bars in each graph), mCD147^+hCD147^+ (top portion of left and center sets of bars in each graph and center portion of right set of bars in each graph), and mCD147^−hCD147^− (top portion of right set of bars in each graph) cells among the three hiPSC lines is indicated.
# PCR reactions were done using polymerase sold under the trademark KAPA HIFI™ HotStart polymerase; primers and double-stranded DNA fragments sold under the trademark GBLOCKS® are from IDT. Plasmids were constructed using isothermal assembly, transformed into Stbl3 competent E. coli (Invitrogen), grown at 30° C., and verified by Sanger sequencing (Genewiz). Anti-apoptotic genes were obtained from previously published plasmids: Bcl-2 (Addgene plasmid #8793) and Bcl-xL (#8790) (Cheng et al., 2001); Bcl2A1 (#36973) (Pratt et al., 2012); and Mcl-1 (#21605) (Maurer et al., 2006). The dominant negative p53 sequence from Addgene plasmid #9058 (Hahn et al., 2002) was synthesized as a gBlock. These genes were cloned into the EF1α promoter-Cas9 nuclease plasmid after an IRES.
# The U6 promoter-sgRNA (for each sgRNA sequence) was cloned into the EF1α promoter-Cas9 nuclease or EF1α promoter-Cas9 nuclease-IRES-Bcl-2 expression plasmids to form the “Cas9 only sgRNA” or “Cas9 Bcl-2 sgRNA” plasmids used in Examples 6 and 7. […]
substance,measurement,setting,value
"Bcl-2: B cell lymphoma 2 protein, anti-apoptotic, overexpressed from lentivirus or Cas9 plasmid",gene targeting at the CD147 and Thy1 loci,"Bcl-2 on the Cas9 plasmid, PGP4 hiPSC line",markedly improved gene targeting
same,mCD147 gene targeting frequencies,"Bcl-2 on the Cas9 plasmid, retroviral and non-integrating PGP1 hiPSC lines",substantially and reproducibly increased gene targeting frequencies
same,"mThy1 gene targeting, wild type vs mutant Bcl-2","Cas9 Bcl-2 sgRNA plasmids, transient transfection",greatest enhancement
same,mThy1 gene targeting frequencies compared to Cas9 only controls,transient transfection of Cas9-IRES-anti-apoptotic factor plasmid,the only anti-apoptotic factor that increased gene targeting frequencies
